Converted amounts (≈) assume the structure as drawn.
Tests used:
[1] = test system: Pasteurella multocida; assay: The minimum inhibitory concentration (MIC) of the cyclohexylamide analogs against Pasteurella multocida; assay type: functional
[2] = test system: Brachyspira hyodysenteriae; assay: The minimum inhibitory concentration (MIC) of the cyclohexylamide analogs against Serpulina hyodysenteriae; assay type: functional

Structure (SMILES) | MIC [1] | MIC [2]
CO[C@@H]1[C@H](O)[C@@H](O)[C@@H](NC(=O)/C(C)=C\c2ccc(O[C@@H]3O[C@H](C(C)=O)[C@@H](O)[C@@H]3O)c(O)c2)[C@@H](O)[C@@H]1OC | > 400 µg/mL | 100 µg/mL (≈ 190 µM)
CO[C@@H]1[C@@H](O)[C@H]2OCO[C@H]2[C@H](O)[C@@H]1NC(=O)/C(C)=C\c1ccc(O[C@@H]2O[C@H](C(C)=O)[C@@H](O)[C@@H]2O)c(O)c1 | 12.5 µg/mL (≈ 23.8 µM) | 3.13 µg/mL (≈ 5.96 µM)
CC(=O)[C@H]1O[C@@H](Oc2ccc(/C=C(\C)C(=O)N[C@H]3C4OC(C5OCOC54)[C@H]3O)cc2O)[C@@H](O)[C@@H]1O (some centres undefined) | > 200 µg/mL | > 200 µg/mL
CO[C@@H]1[C@@H](O)[C@@H](NC(=O)/C(C)=C\c2ccc(O[C@@H]3O[C@H](C(C)=O)[C@@H](O)[C@@H]3O)c(O)c2)[C@@H](O)[C@@H]2OCO[C@H]12 | 100 µg/mL (≈ 190 µM) | 25 µg/mL (≈ 47.6 µM)
CC(=O)[C@H]1O[C@@H](Oc2ccc(/C=C(/C)C(=O)N[C@H]3[C@@H](O)[C@@H]4OCO[C@@H]4[C@H](O)[C@@H]3O)cc2O)[C@@H](O)[C@@H]1O | 12.5 µg/mL (≈ 24.4 µM) | 3.13 µg/mL (≈ 6.12 µM)
CO[C@@H]1[C@H](NC(=O)/C(C)=C\c2ccc(O[C@@H]3O[C@H](C(C)=O)[C@@H](O)[C@@H]3O)c(O)c2)[C@H](O)[C@@H](O)[C@H]2OCO[C@H]21 | 12.5 µg/mL (≈ 23.8 µM) | 6.25 µg/mL (≈ 11.9 µM)
CC(=O)[C@H]1O[C@@H](Oc2ccc(/C=C(\C)C(=O)N[C@@H]3[C@H](O)[C@@H](O)[C@H]4OCO[C@H]4[C@@H]3O)cc2O)[C@@H](O)[C@@H]1O [HYGROMYCIN A] | 1.56 µg/mL (≈ 3.05 µM) | 1.56 µg/mL (≈ 3.05 µM)
